What was measured:
velvetleaf [1] = assay: Test Example 2: soil surface treatment on upland field; format: in vivo, Abutilon theophrasti; conditions: 500 g/ha, 12 days after application
Source text: (§1) In the examples, the compounds are identified by the Compound Numbers as in Tables 1 to 3. […] A cylindrical plastic pot having a diameter of 10 cm and a depth of 10 cm was filled with soil and seeded with velvetleaf. Then each of compounds 1-1, 2-1, 2-2, 3-1 and 3-101 was formulated into an emulsifiable concentrate according to Formulation Example 2 and then diluted to the prescribed amount with water and dilution was uniformly sprayed over the surface of the soil with sprayer at a rate of 1000 liters per hectare. After the application, the test plants were grown in a greenhouse for 12 days, and the herbicidal activity was examined.

barnyardgrass [2] = assay: Test Example 1: foliar treatment on upland field; format: in vivo, Echinochloa crus-galli; conditions: 125 g/ha, 8 days after application
Description: (§2) In the examples, the compounds are identified by the Compound Numbers as in Tables 1 to 3.
(§3) A cylindrical plastic pot having a diameter of 10 cm and a depth of 10 cm was filled with soil and seeded with ivyleaf momingglory, velvetleaf and bamyardgrass. These test plants were grown in a greenhouse for 9 days. Then each of compounds 1-1, 2-1, 2-2, 3-1 and 3-101 was formulated into an emulsifiable concentrate according to Formulation Example 2 and then diluted to the prescribed amount with water containing a spreading agent and the dilution was uniformly sprayed over the foliage of the test plants with sprayer at a rate of 1000 liters per hectare. After the application, the test plants were grown in the greenhouse for 8 days, and the herbicidal activity were determined.

ivyleaf morningglory [3] = assay: Test Example 1: foliar treatment on upland field; format: in vivo, Ipomoea hederacea; conditions: 125 g/ha, 8 days after application
Description: as §2, §3

velvetleaf [4] = assay: Test Example 1: foliar treatment on upland field; format: in vivo, Abutilon theophrasti; conditions: 125 g/ha, 8 days after application
Description: as §2, §3

ivyleaf morningglory [5] = assay: Test Example 4: soil surface treatment on upland field (Table 5); format: in vivo, Ipomoea hederacea; set-up: key: 0: little difference in the degree of germination or growth between the treated plants and the untreated plants at the time of examination; 10: the treated plants died completely or their germination or growth was completely inhibited; conditions: 500 g/ha active ingredient, examined 12 days after application, index 0-10
Source text: as §1, with “seeded ivyleaf morningglory, velvetleaf and barnyardgrass.” for “seeded with velvetleaf.”, “compounds listed below” for “compounds 1-1, 2-1, 2-2, 3-1 and 3-101”, “at the” for “at a”

barnyardgrass [6] = assay: Test Example 3: foliar treatment on upland field (Table 4); format: in vivo, Echinochloa crus-galli; set-up: key: 0: little difference in the degree of germination or growth between the treated plants and the untreated plants at the time of examination; 10: the treated plants died completely or their germination or growth was completely inhibited; conditions: 125 g/ha active ingredient, examined 16 days after application, index 0-10
Description: (§4) In the examples, the compounds are identified by the Compound Numbers as in Tables 1 to 3. […] A cylindrical plastic pot having a diameter of 10 cm and a depth of 10 cm was filled with soil and seeded with ivyleaf momingglory, velvetleaf and barnyardgrass. These test plants were grown in a greenhouse for 10 days. Then each of compounds listed below was formulated into an emulsifiable concentrate according to Formulation Example 2 and then diluted to the prescribed amount with water containing a spreading agent and the dilution was uniformly sprayed over the foliage of the test plants with sprayer at a rate of 1000 liters per hectare. After the application, the test plants were grown in the greenhouse for 16 days, and the herbicidal activity were determined.

ivyleaf morningglory [7] = assay: as above; format: in vivo, Ipomoea hederacea; set-up: key: 0: little difference in the degree of germination or growth between the treated plants and the untreated plants at the time of examination; 10: the treated plants died completely or their germination or growth was completely inhibited; conditions: 125 g/ha active ingredient, examined 16 days after application, index 0-10
Description: as §4

barnyardgrass [8] = assay: Test Example 4: soil surface treatment on upland field (Table 5); format: in vivo, Echinochloa crus-galli; set-up: key: 0: little difference in the degree of germination or growth between the treated plants and the untreated plants at the time of examination; 10: the treated plants died completely or their germination or growth was completely inhibited; conditions: 500 g/ha active ingredient, examined 12 days after application, index 0-10
Source text: as §1, with “seeded ivyleaf morningglory, velvetleaf and barnyardgrass.” for “seeded with velvetleaf.”, “compounds listed below” for “compounds 1-1, 2-1, 2-2, 3-1 and 3-101”, “at the” for “at a”

velvetleaf [9] = assay: as above; format: in vivo, Abutilon theophrasti; set-up: key: 0: little difference in the degree of germination or growth between the treated plants and the untreated plants at the time of examination; 10: the treated plants died completely or their germination or growth was completely inhibited; conditions: 500 g/ha active ingredient, examined 12 days after application, index 0-10
Source text: as §1, with “seeded ivyleaf morningglory, velvetleaf and barnyardgrass.” for “seeded with velvetleaf.”, “compounds listed below” for “compounds 1-1, 2-1, 2-2, 3-1 and 3-101”, “at the” for “at a”

large crabgrass = assay: Test Example 5: foliar treatment on upland field (Table 6); format: in vivo, Digitaria sanguinalis; set-up: key: 0: little difference in the degree of germination or growth between the treated plants and the untreated plants at the time of examination; 10: the treated plants died completely or their germination or growth was completely inhibited; conditions: 125 g/ha, 19 days after application, index 0 to 10
Description: In the examples, the compounds are identified by the Compound Numbers as in Tables 1 to 3. […] A pot for plug seedlings seeded with large crabgrass. The test plant was grown in a greenhouse for 14 days, then transplanted into a plastic pot having an area of 17×12 cm^2 and a depth of 7 cm, and further the test plants were grown in the greenhouse for 8 days. Then each of compounds listed below was formulated into an emulsifiable concentrate according to Formulation Example 2 and then diluted to the prescribed amount with water containing a spreading agent and the dilution was uniformly sprayed over the foliage of the test plants with sprayer at a rate of 1000 liters per hectare. After the application, the test plants were grown in the greenhouse for 19 days, and the herbicidal activity were determined.

velvetleaf [10] = assay: Test Example 3: foliar treatment on upland field (Table 4); format: in vivo, Abutilon theophrasti; set-up: key: 0: little difference in the degree of germination or growth between the treated plants and the untreated plants at the time of examination; 10: the treated plants died completely or their germination or growth was completely inhibited; conditions: 125 g/ha active ingredient, examined 16 days after application, index 0-10
Description: as §4

SMILES | germination of velvetleaf (velvetleaf [1]) | growth of barnyardgrass (barnyardgrass [2]) | growth of ivyleaf morningglory (ivyleaf morningglory [3]) | growth of velvetleaf (velvetleaf [4]) | Herbicidal effect Ivyleaf morningglory (ivyleaf morningglory [5]) | Herbicidal effect Barnyardgrass (barnyardgrass [6]) | Herbicidal effect Ivyleaf morningglory (ivyleaf morningglory [7]) | Herbicidal effect Barnyardgrass (barnyardgrass [8]) | Herbicidal effect Velvetleaf (velvetleaf [9]) | Herbicidal effect Large crabgrass (large crabgrass) | Herbicidal effect Velvetleaf (velvetleaf [10])
CCc1ccc(COc2cc(-n3c(=O)cc(C(F)(F)F)n(C)c3=O)c(F)cc2Cl)c(OC(C)C(=O)OC)c1 (stereo not shown) [Compound 3-101, Methyl 2-[2-({2-chloro-4-fluoro-5-[3-methyl-2,6-dioxo-4-(trifluoromethyl)-1,2,3,6-tetrahydropyrimidine-1-yl]phenoxy}methyl)-5-ethylphenoxy]propionate] | completely controlled | completely controlled | completely controlled | completely controlled | – | – | – | – | – | – | –
COC(=O)C(C)Oc1c(Br)cc(COc2cc(-n3c(=O)cc(C(F)(F)F)n(C)c3=O)c(F)cc2Cl)cc1OC (stereo not shown) [Compound 1-161, Methyl 2-[2-bromo-4-({2-chloro-4-fluoro-5-[3-methyl-2,6-dioxo-4-(trifluoromethyl)-1,2,3,6-tetrahydropyrimidine-1-yl]phenoxy}methyl)-6-methoxyphenoxy]propionate] | – | – | – | – | 7 | 8 | 10 | 4 | 10 | 10 | 10
CCOC(=O)C(C)Oc1cccc(COc2cc(-n3c(=O)cc(C(F)(F)F)n(C)c3=O)c(F)cc2Cl)c1 (stereo not shown) [Compound 2-2, Ethyl 2-[3-({2-chloro-4-fluoro-5-[3-methyl-2,6-dioxo-4-(trifluoromethyl)-1,2,3,6-tetrahydropyrimidine-1-yl]phenoxy}methyl)phenoxy]propionate] | completely controlled | completely controlled | completely controlled | completely controlled | 10 | 10 | 10 | 10 | 10 | 10 | 10
COC(=O)C(C)Oc1ccc(Cl)c(COc2cc(-n3c(=O)cc(C(F)(F)F)n(C)c3=O)c(F)cc2Cl)c1 (stereo not shown) [Compound 2-187, Methyl 2-[4-chloro-3-({2-chloro-4-fluoro-5-[3-methyl −2,6-dioxo-4-(trifluoromethyl)-1,2,3,6-tetrahydropyrimidine-1-yl]phenoxy}methyl)phenoxy]propionate] | – | – | – | – | 10 | 10 | 10 | 9 | 10 | 10 | 10
COC(=O)C(C)Oc1ccccc1COc1cc(-n2c(=O)cc(C(F)(F)F)n(C)c2=O)c(F)cc1Cl (stereo not shown) [Compound 3-1, methyl 2-[2-({2-chloro-4-fluoro-5-[3-methyl-2,6-dioxo-4-(trifluoromethyl)-1,2,3,6-tetrahydropyrimidine-1-yl]phenoxy}methyl)phenoxy]propionate] | completely controlled | completely controlled | completely controlled | completely controlled | – | – | – | – | – | – | –
CCC(Oc1cc(-n2c(=O)cc(C(F)(F)F)n(C)c2=O)c(F)cc1Cl)c1ccc(OC(C)C(=O)OC)cc1 (stereo not shown) [Compound 1-213, Methyl 2-[4-(1-{2-chloro-4-fluoro-5-[3-methyl-2,6-dioxo-4-(trifluoromethyl)-1,2,3,6-tetrahydropyrimidine-1-yl]phenoxy}propyl)phenoxy]propionate] | – | – | – | – | 10 | 10 | 10 | 10 | 10 | 10 | 10
COC(=O)C(C)Oc1cc(COc2cc(-n3c(=O)cc(C(F)(F)F)n(C)c3=O)c(F)cc2Cl)ccc1Cl (stereo not shown) [Compound 2-41, Methyl 2-[2-chloro-5-({2-chloro-4-fluoro-5-[3-methyl-2,6-dioxo-4-(trifluoromethyl)-1,2,3,6-tetrahydropyrimidine-1-yl]phenoxy}methyl)phenoxy]propionate] | – | – | – | – | 10 | 10 | 10 | 10 | 10 | 10 | 10
COC(=O)C(C)Oc1ccc(C(C#N)Oc2cc(-n3c(=O)cc(C(F)(F)F)n(C)c3=O)c(F)cc2Cl)cc1 (stereo not shown) [Compound 1-226, Methyl 2-{4-[{2-chloro-4-fluoro-5-[3-methyl-2,6-dioxo-4-(trifluoromethyl)-1,2,3,6-tetrahydropyrimidine-1-yl]phenoxy}(cyano)methyl]phenoxy}propionate] | – | – | – | – | 10 | 10 | 10 | 9 | 10 | 10 | 10
COC(=O)COc1cccc(COc2cc(-n3c(=O)cc(C(F)(F)F)n(C)c3=O)c(F)cc2Cl)c1 [Compound 2-11, Methyl 2-[3-({2-chloro-4-fluoro-5-[3-methyl-2,6-dioxo-4-(trifluoromethyl)-1,2,3,6-tetrahydropyrimidine-1-yl]phenoxy}methyl)phenoxy]acetate] | – | – | – | – | 10 | 8 | 10 | 9 | 10 | 10 | 10

— patent US6664214B1, “Uracil compounds and use thereof” (Sumitomo Chemical Company, Limited, priority 1999, dated 2003)
